Data on three substances can be found in patent US20240238422A1 (Osprey Biopharmaceuticals, Inc., priority 2021, published 2024).

As a reminder, the Kd is the equilibrium constant for the complex coming apart.

“Also recorded” adds a separate entry of the source.

The test system of data set [1] is C57BL/6 mice. Description: Anti-drug antibody (serum IgG titer) response to adalimumab and conjugates in mice. It is filed as in vivo, mouse. The method, then:
To evaluate the production of antibodies specific to adalimumab and/or adalimumab-Siglec Ligand conjugates, C57BL/6 mice were immunized through intravenous injection with adalimumab or Siglec Ligand-conjugated adalimumab. On study day −1, animals were randomized into treatment groups based on body weight. On study day 0, animals were bled for baseline serum and then injected IV with adalimumab or the adalimumab-Siglec Ligand conjugates. The individual antigens were prepared by making a 0.8 mg/ml antigen solution in sterile buffered saline. Animals were then injected with 0.1 ml (^˜4 ml/kg) of the 0.8 mg/ml antigen via the tail vein. The total dose based on a 20 g mouse would be 4 mg/kg. Animals were bled via the retro-orbital sinus weekly throughout the study under inhaled isoflurane anesthesia. On study day, 28 animals were anesthetized with inhaled isoflurane anesthesia and then bled via cardiac puncture and then sacrificed by cervical dislocation. […]
ADA assays were performed on 96-well assay plates (Nunc Plates, Black 96-Well Immuno Plates, Thermo Scientific, 437111) coated with antigen, as follows. […] The excitation and emission settings for the QuantaBlu Fluorogenic Peroxide Substrates are 325 nm and 420 nm and the relative florescence units were measured using a SpectraMax plate reader. […] Titers were determined by the dilution of serum that gives a 2× OD above background. […]

The target in data set [2] is Human TNFα (Homo sapiens, UniProt P01375). Description: TNFα - Adalimumab/Adalimumab-Siglec Ligand Conjugate SPR Binding Assays. The following applies: TNFα analyte, test article on Protein A chip, 1:1 binding model. The method, then: Binding experiments of Adalimumab Conjugates were performed on a Biacore 8K+ using a Cytiva Protein A Chip Series S (Cat #29127555). Briefly, conjugates were diluted in running buffer (HBS-EP+) and scouted for a concentration yielding about 30 RU of response after 20 seconds of injection at 30 μL/min on the active surface (flow cell 2). Human TNFα was serially diluted in running buffer 1:1 from 100 nM to 0.1953 nM and then injected across both the reference (flow cell 1) and active surface (flow cell 2) for 120 seconds at 30 μL/min and allowed to dissociate for 600 s. […] Sensorgrams were fitted to a 1:1 binding model in Biacore Insight Evaluation Software Version 3.0.11.15423.
Chain of Human TNFα (P01375 77-233 limits assumed): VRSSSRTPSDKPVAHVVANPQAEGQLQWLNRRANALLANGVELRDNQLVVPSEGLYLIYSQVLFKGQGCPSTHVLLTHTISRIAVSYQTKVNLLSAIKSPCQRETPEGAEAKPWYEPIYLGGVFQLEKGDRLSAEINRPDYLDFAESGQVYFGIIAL

The test system of data set [3] is C57BL/6 mice. Kind of data set: Serum IgG response to hen egg white lysozyme (HEL) in mice. It is filed as in vivo, mouse. The note with it: Example 20: 4 weekly 200 μg i.v. doses (days 0, 7, 14, and 21), day 27. The method, then: On study day −1, animals were randomized into treatment groups based on body weight. On study day 0, animals were bled for baseline serum and then injected IV with adalimumab, adalimumab-Siglec Ligand conjugate, or PBS vehicle. The individual adalimumab-based antigens were prepared by making a 0.8 mg/ml antigen solution in sterile buffered saline. Animals were then injected with 0.1 ml (^˜4 ml/kg) of the 0.8 mg/ml antigen via the tail vein. The total dose based on a 20 g mouse would be 4 mg/kg. Mice were subsequently administered 200 μg HEL on days 7, 14, and 21. Whole blood was collected into Microvette EDTA capillary collection tubes (Sarstedt Inc) and then further processed following the manufacturer's instructions for serum collection. Samples were stored at −80 C until analysis was performed.
ADA assays were performed on 96-well assay plates (Nunc Plates, Black 96-Well Immuno Plates, Thermo Scientific, 437111) coated with antigen as follows. […] The excitation and emission settings for the QuantaBlu Fluorogenic Peroxide Substrates are 325 nm and 420 nm and the relative florescence units were measured using a SpectraMax plate reader. […] Titers were determined by the dilution of serum that gives a 2× OD above background.
On study day −1, animals were randomized into treatment groups based on body weight. […] Serum IgG levels against HEL/HEL conjugate were measured at day 27. […]

Turning to Adalimumab, in data set [1] (Example 14: single 4 mg/kg i.v. dose, days 14, 21, and 28, GAL and PEG linkers, listed as adalimumab hIgG1, 4 mg/kg), the “anti-drug antibody response (mouse serum IgG titer against adalimumab/adalimumab conjugates)” value was “highly immunogenic in mice; also recorded: high mouse IgG serum titers”. Besides, in data set [1] (Example 19: 4 mg/kg day 0, then weekly 200 μg HEL, day 28), the “IgG response against adalimumab/adalimumab conjugate” value was “strong IgG response”. Further, in data set [2], binding was put at a Kd of 1.46 nM, the “Rmax (RU)” value is 10.6 RU, the “ka” value turned out to be 245000 M⁻¹ s⁻¹ and the “kd” value was 0.000357 s⁻¹.
In the case of “HEL: hen egg white lysozyme (Sigma, L4919-1G), standard immunogen [reference compound]”, in data set [3], the “IgG response to HEL/HEL conjugate (immunogenicity)” value was “vigorous IgG responses to HEL”.
Consider “Siglec Ligand-HEL conjugates: hen egg white lysozyme conjugated with monovalent BPC-Neu5Gc PEG ligand-linker, LDR of 1.6”, for which the “IgG response to HEL/HEL conjugate (immunogenicity)” value in data set [3] is listed as “completely suppressed for immunogenicity”.
